Where a name gives a salt, the structure may show the parent alone. Activity calls are given as the source filed them.
Tests used:
Aspartyl aminopeptidase = biological target: T1, Aspartyl aminopeptidase (Plasmodium falciparum 3D7, UniProt Q8I2J3)
T1 sequence (Q8I2J3 whole entry): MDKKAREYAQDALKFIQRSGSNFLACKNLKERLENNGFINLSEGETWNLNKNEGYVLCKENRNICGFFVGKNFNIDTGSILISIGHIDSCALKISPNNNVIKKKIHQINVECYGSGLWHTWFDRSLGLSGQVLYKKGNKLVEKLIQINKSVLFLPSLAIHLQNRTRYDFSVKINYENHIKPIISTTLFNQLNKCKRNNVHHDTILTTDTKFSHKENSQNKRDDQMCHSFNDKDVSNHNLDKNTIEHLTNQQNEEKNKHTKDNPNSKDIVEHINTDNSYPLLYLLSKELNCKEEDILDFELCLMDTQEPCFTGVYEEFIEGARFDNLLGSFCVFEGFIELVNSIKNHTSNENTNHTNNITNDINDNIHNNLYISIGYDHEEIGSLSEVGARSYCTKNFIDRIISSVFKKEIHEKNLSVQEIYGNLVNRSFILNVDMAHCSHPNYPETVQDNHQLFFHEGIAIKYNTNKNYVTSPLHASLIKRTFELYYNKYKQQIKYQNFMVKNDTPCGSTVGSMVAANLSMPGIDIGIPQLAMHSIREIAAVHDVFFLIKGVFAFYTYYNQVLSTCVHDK

Procathepsin L = Procathepsin L (Homo sapiens, UniProt P07711)
[1] = biological target: Luciferin 4-monooxygenase (Photinus pyralis, UniProt P08659); experiment: Counter Screen for Luciferase-based Assay Positives. [Related pubchem assays: 620, 618, 411 ]
[2] = biological target: Glyceraldehyde-3-phosphate dehydrogenase (Homo sapiens, UniProt P04406)
HT-1080 = experiment: cytotoxicity in HT1080 fibrosarcoma cells, cell-based, fluorescence readout (AID 620); assay type: functional; conditions: Homo sapiens
Mucolipin-3 = biological target: T2, Mucolipin-3 (Homo sapiens, UniProt Q8TDD5); experiment: Dose response cell-based high-throughput screening assay for agonists of the transient receptor potential channel ML3 (TRPML3). [Related pubchem assays: 1526, 1424, 1448 ]; assay type: functional
T2 sequence (Q8TDD5 whole entry): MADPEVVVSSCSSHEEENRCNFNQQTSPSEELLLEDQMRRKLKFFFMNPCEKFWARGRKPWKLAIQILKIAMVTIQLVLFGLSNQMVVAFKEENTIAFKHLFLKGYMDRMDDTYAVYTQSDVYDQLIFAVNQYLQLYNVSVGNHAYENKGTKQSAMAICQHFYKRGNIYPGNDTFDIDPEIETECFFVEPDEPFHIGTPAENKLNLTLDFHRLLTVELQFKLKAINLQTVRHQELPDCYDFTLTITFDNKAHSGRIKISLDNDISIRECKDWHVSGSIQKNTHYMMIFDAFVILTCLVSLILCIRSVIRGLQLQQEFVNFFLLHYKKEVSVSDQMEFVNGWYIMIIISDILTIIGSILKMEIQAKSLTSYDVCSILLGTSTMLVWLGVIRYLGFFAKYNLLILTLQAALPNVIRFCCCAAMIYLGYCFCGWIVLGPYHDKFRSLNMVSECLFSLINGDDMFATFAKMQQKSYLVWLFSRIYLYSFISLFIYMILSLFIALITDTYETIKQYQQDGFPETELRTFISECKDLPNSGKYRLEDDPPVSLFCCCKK

Ion channel NompC = Ion channel NompC (Danio rerio, UniProt Q7T1G6); experiment: Fluorescence counterscreen assay for TRPML3 agonists: dose response cell-based high-throughput screening assay to identify agonists of the transient receptor potential channel N1 (TRPN1). [Related pubchem assays: 1526, 1424, 1448 ]; assay type: functional
[3] = biological target: Voltage-gated inwardly rectifying potassium channel KCNH2 (Homo sapiens, UniProt Q12809); conditions: Potency;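 also: confirmatory quantitative high-throughput screen measuring inhibition of hERG channel activity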
[4] = biological target: T3, Rac GTPase-activating protein 1 (Homo sapiens, UniProt Q9H0H5); experiment: MgcRacGAP GTPase-activating activity inhibitors, confirmation, biochemical, ADP Hunter fluorescence, primary and confirmatory (AID 624330); assay type: functional
T3 sequence (Q9H0H5 whole entry): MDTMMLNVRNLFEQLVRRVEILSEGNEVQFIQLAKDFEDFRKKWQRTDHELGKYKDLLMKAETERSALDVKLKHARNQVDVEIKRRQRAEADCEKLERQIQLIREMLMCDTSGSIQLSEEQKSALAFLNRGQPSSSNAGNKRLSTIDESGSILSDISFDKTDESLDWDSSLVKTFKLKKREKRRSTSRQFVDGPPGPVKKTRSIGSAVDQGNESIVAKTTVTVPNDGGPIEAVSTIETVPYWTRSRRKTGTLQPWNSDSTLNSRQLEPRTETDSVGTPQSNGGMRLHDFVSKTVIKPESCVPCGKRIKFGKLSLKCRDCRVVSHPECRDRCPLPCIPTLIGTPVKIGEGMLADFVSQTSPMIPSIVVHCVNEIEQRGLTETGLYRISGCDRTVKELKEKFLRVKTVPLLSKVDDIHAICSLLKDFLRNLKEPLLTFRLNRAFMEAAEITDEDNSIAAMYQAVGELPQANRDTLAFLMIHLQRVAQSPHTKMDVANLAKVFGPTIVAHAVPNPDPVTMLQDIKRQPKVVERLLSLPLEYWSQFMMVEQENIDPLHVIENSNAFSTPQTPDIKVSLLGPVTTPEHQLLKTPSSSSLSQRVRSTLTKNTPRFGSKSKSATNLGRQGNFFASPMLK

Albumin = Albumin (Bos taurus, UniProt P02769); experiment: Counterscreen for inhibitors of T-cell receptor (TCR)-CD3 interaction: Fluorescence-based biochemical high throughput dose response assay to identify inhibitors of T-cell receptor (TCR)-CD3 interaction using a TAMRA-labeled BSA probe.; assay type: functional
[5] = biological target: T4, Histone-lysine N-methyltransferase NSD2 (Homo sapiens, UniProt O96028); assay type: biochemical
T4 sequence (O96028 whole entry): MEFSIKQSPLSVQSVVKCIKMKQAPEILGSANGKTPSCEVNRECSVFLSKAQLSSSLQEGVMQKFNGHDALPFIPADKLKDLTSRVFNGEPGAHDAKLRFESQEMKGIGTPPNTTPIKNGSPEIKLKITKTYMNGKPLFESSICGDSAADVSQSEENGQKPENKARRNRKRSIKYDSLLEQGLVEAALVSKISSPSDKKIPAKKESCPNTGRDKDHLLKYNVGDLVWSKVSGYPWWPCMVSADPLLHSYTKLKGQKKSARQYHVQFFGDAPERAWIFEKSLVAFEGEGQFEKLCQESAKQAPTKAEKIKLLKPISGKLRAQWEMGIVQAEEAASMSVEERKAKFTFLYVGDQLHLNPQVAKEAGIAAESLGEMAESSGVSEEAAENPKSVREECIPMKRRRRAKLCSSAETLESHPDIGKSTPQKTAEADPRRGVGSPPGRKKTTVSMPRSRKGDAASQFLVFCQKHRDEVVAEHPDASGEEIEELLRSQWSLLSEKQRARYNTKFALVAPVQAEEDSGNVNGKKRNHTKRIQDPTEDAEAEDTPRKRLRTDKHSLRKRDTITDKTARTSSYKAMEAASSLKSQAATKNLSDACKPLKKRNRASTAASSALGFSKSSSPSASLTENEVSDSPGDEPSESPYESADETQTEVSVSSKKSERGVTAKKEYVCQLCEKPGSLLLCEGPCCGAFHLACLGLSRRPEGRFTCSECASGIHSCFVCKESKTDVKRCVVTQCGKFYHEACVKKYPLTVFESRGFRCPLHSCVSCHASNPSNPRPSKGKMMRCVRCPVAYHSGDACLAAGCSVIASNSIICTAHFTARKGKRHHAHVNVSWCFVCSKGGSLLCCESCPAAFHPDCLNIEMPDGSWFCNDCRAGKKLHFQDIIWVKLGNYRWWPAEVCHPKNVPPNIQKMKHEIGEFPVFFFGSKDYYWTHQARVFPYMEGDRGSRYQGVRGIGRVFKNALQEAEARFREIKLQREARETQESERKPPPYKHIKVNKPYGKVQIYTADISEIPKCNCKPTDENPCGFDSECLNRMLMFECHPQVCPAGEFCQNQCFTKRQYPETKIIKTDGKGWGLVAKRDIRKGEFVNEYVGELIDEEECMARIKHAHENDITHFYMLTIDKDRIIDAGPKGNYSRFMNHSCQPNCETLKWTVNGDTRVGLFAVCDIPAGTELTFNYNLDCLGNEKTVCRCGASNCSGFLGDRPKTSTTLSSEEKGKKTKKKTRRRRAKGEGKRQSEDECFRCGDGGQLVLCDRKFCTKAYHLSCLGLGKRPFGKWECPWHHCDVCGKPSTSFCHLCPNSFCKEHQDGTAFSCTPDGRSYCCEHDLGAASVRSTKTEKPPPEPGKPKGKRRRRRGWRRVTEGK

[6] = biological target: T5, Neuropeptide Y receptor type 1 (Homo sapiens, UniProt P25929); assay type: functional;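 also: HEK293 cells with a CNG channel challenged with NPY then isoproterenol; potency as antagonist that reverses NPY suppression of cAMP signal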
T5 sequence (P25929 whole entry): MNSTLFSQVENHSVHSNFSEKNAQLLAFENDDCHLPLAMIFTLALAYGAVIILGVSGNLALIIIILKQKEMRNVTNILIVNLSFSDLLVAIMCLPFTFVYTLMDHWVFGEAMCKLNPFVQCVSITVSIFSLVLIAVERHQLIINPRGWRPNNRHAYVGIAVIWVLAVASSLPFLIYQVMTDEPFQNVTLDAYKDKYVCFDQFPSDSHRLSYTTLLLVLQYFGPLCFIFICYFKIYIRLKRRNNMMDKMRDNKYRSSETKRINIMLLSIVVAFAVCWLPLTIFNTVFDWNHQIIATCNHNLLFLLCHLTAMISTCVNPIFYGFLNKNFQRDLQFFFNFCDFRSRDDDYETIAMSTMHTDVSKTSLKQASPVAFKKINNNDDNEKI

[7] = biological target: T6, Neuropeptide Y receptor type 2 (Homo sapiens, UniProt P49146); assay type: functional, cell-based;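 also: HEK293 cells expressing the receptor and a CNG channel; stimulus was NPY near EC95 followed by isoproterenol to raise cAMP; antagonist potency measured as restoring cAMP signal that NPY suppresses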
T6 sequence (P49146 whole entry): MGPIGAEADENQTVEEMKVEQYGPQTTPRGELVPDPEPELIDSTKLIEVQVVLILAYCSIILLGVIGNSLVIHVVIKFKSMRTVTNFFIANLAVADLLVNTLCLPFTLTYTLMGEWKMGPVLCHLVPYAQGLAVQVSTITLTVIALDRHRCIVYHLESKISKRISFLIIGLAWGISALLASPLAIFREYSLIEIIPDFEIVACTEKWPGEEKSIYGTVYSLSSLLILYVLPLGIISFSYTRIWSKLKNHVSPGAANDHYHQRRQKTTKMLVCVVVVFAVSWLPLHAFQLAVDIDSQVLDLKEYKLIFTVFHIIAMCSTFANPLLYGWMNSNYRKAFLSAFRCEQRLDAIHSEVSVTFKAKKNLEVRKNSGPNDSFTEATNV

[8] = biological target: T7, Short transient receptor potential channel 4 (Mus musculus, UniProt Q9QUQ5); experiment: mouse TRPC4 channel inhibitors, dose response, cell-based, HEK293 TRPC4/mu-opioid, Fluo-4 calcium (AID 434942); assay type: functional;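 also: potency of inhibitors blocking the TRPC4 calcium response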
T7 sequence (Q9QUQ5 whole entry): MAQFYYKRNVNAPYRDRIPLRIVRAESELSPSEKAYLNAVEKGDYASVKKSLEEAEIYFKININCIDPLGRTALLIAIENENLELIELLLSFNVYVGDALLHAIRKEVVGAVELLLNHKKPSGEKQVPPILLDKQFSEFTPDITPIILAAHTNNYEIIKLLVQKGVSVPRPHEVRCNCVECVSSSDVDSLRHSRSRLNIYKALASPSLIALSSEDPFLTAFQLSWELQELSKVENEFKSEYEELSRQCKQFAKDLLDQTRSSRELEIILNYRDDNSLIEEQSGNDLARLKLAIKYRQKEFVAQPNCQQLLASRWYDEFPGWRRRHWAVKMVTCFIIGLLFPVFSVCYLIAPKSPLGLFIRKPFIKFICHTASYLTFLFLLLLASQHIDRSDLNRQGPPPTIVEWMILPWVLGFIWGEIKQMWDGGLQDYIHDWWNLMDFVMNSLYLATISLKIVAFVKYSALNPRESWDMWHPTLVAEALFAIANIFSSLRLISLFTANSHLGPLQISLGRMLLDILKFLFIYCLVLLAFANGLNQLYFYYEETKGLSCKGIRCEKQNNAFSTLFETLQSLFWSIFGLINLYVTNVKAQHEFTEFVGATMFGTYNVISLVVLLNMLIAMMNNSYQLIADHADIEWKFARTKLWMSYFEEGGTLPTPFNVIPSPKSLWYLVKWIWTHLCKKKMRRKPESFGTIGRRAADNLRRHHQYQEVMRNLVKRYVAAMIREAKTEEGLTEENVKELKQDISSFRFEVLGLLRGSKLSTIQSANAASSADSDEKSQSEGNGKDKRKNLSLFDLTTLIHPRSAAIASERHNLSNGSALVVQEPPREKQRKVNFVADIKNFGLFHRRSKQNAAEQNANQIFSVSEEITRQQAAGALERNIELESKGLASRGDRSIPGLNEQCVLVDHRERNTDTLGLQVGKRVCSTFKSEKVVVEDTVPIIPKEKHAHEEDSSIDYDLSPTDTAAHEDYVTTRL

[9] = biological target: Lysosomal acid glucosylceramidase (Homo sapiens, UniProt P04062); experiment: Dose response cell-based high throughput screening assay to identify enhancers of beta-glucosidase activity. [Related pubchem assays: 784 ]; assay type: functional
Lysosomal acid glucosylceramidase, sequence (P04062 whole entry): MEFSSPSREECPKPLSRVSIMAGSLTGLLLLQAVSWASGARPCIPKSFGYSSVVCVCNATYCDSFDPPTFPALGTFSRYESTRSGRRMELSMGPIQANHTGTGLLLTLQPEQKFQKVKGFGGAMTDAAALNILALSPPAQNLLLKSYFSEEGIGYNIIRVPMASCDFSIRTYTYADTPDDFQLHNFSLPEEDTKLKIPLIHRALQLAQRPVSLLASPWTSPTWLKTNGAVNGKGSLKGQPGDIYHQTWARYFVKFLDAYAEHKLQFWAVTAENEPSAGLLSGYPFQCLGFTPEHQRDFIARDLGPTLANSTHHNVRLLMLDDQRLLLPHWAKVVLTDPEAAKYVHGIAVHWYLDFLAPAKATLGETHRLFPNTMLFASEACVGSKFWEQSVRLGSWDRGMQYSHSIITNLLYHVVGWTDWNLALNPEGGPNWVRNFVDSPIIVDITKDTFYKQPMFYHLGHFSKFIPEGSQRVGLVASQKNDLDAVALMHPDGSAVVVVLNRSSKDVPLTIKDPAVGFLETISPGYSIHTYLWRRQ

Ion channel NompC, sequence (Q7T1G6 whole entry): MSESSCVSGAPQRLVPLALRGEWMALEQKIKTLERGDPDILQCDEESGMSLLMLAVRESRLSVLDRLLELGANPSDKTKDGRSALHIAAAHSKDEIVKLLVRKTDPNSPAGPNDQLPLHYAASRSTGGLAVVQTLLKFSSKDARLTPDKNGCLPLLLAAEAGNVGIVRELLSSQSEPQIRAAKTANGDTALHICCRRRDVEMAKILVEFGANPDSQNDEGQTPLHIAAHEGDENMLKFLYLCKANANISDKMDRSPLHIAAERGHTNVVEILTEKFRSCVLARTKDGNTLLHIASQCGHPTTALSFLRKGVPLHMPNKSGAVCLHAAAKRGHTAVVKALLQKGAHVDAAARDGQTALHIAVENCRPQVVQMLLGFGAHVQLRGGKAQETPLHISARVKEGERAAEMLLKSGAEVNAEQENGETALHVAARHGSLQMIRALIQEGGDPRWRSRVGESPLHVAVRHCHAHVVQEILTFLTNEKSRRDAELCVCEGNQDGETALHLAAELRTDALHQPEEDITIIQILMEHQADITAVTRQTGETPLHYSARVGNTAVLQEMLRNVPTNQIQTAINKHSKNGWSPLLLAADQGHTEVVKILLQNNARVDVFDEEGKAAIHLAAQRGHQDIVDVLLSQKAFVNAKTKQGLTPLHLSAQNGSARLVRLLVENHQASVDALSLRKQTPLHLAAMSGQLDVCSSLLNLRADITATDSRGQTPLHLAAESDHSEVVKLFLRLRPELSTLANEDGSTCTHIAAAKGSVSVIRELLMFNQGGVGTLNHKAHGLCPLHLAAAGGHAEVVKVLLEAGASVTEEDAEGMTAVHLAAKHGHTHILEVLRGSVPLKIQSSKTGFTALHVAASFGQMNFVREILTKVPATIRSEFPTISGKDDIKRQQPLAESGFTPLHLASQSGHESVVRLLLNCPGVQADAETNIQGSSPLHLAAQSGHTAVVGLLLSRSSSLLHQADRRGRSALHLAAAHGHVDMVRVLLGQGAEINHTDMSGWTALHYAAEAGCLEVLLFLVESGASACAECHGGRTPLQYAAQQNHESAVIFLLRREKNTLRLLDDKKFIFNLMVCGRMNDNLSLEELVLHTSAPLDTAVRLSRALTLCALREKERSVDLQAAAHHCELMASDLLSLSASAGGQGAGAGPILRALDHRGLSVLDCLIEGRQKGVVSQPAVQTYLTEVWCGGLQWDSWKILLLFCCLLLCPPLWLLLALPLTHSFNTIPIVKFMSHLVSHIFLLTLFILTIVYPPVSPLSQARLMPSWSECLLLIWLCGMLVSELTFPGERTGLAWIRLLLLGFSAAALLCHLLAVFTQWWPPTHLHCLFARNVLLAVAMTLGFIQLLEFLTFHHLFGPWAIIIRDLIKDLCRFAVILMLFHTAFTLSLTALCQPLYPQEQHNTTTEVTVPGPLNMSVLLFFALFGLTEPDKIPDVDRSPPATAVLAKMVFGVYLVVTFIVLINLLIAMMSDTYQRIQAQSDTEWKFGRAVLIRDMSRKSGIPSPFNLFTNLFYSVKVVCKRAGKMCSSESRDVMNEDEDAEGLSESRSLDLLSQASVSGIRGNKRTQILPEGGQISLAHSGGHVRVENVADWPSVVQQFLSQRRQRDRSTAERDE
Luciferin 4-monooxygenase, sequence (P08659 whole entry): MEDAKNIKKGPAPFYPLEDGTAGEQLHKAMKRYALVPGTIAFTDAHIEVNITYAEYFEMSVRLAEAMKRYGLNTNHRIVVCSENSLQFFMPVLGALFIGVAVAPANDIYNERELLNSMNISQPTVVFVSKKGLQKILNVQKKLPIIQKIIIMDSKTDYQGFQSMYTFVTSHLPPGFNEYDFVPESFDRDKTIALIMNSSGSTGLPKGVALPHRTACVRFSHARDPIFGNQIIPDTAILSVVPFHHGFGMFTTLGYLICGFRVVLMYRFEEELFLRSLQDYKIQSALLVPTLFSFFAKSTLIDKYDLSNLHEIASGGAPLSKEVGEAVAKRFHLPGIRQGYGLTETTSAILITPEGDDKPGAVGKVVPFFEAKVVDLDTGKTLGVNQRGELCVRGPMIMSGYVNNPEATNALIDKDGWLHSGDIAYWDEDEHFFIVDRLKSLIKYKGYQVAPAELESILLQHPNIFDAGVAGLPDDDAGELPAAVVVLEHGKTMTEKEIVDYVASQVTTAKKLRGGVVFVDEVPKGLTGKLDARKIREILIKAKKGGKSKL
Procathepsin L, sequence (P07711 whole entry): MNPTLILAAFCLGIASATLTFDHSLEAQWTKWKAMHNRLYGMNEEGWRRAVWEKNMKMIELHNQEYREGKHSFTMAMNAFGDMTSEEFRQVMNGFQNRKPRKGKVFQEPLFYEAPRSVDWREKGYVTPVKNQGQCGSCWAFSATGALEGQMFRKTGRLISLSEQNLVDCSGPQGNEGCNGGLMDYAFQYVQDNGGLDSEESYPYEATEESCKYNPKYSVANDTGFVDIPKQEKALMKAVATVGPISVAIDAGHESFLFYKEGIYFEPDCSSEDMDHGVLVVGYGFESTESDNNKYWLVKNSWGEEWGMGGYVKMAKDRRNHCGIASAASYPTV
Voltage-gated inwardly rectifying potassium channel KCNH2, sequence (Q12809 whole entry): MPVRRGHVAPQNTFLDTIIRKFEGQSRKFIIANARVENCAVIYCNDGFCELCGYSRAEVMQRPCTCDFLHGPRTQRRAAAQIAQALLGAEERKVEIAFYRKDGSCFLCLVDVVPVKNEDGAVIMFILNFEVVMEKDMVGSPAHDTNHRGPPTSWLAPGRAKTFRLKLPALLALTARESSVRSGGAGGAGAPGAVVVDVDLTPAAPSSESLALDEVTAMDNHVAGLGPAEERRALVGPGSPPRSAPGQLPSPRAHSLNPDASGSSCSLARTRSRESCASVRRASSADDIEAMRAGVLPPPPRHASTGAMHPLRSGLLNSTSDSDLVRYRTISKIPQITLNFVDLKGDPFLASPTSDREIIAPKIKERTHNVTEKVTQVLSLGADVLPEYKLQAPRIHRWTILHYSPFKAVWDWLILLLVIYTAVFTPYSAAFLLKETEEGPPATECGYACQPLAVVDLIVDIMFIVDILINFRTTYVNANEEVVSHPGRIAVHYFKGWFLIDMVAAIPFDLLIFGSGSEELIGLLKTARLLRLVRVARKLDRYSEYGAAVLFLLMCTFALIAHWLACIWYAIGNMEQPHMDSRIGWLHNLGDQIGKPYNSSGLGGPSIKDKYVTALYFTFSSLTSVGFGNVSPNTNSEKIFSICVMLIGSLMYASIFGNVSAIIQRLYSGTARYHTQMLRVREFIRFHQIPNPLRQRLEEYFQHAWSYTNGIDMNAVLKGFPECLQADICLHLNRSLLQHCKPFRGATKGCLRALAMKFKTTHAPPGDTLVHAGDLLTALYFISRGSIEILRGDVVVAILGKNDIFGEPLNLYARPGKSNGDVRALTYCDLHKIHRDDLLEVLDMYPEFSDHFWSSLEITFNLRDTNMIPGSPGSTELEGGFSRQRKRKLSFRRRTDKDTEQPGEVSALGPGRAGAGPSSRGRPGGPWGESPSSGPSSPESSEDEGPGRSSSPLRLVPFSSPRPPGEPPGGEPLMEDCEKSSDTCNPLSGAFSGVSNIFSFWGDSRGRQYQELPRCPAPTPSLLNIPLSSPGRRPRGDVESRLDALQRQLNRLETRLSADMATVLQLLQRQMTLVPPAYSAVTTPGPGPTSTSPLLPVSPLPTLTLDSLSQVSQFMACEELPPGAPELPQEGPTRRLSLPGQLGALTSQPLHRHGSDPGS
Glyceraldehyde-3-phosphate dehydrogenase, sequence (P04406 whole entry): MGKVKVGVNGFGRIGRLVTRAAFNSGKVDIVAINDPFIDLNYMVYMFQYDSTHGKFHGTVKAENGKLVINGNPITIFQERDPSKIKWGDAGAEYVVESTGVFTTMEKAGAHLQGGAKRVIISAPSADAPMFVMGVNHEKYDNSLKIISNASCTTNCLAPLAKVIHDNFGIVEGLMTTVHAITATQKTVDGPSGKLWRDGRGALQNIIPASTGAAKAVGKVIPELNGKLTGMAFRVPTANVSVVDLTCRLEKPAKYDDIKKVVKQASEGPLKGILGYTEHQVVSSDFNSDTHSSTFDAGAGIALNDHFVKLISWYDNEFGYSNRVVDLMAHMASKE

COC(=O)c1cc(C(=O)Nn2cnnc2)cc([N+](=O)[O-])c1
IC50 (Aspartyl aminopeptidase): 2.37 µM (active) | IC50 (Procathepsin L): > 59.6 µM (not active)

Cc1cc(C)c(C)c(S(=O)(=O)Nc2ccccc2C(=O)NCCCn2ccnc2)c1C
EC50 [1]: 61.1 µM (active) | IC50 [2]: > 100 µM (not active) | EC50 (HT-1080): > 50 µM (not active)

COc1ccc(S(=O)(=O)N2CCCCCC2)cc1Br
EC50 (Mucolipin-3): 2.67 µM (active) | EC50 (Ion channel NompC): > 29.9 µM (not active)

Cc1ccc(N=C2CCc3ccccc3N2)cc1
EC50 [1]: 80.9 µM (active)

CC(C)(C)[C@]1(O)CCN2C[C@H]3c4ccccc4CCc4cccc(c43)[C@@H]2C1 [BUTACLAMOL HYDROCHLORIDE]
EC50 (Mucolipin-3): 3.98 µM (active) | EC50 (Ion channel NompC): > 29.9 µM (not active) | AC50 [3]: 6.31 µM (active)

COc1ccc2nc(C)cc(SCC(=O)N/N=C/c3ccc(O)c(O)c3)c2c1
IC50 (Aspartyl aminopeptidase): 2.48 µM (active) | IC50 (Procathepsin L): > 59.6 µM (not active) | IC50 [4]: 23.9 µM (active) | IC50 (Albumin): > 94.1 µM (inactive) | AC50 [5]: > 20 µM (inactive)

C=CCNc1nc(N2CCCC2)nc2ccccc12
IC50 [6]: 11.8 µM (not active) | IC50 [7]: > 35 µM (not active) | EC50 [8]: 1.19 µM (active)

Cc1ccn2cc(C(=O)Nc3ccccc3N3CCOCC3)nc2c1
EC50 [9]: > 50 µM (not active)

From ChEMBL document CHEMBL1201862, “PubChem BioAssay data set” (2004)
